In ChEMBL document CHEMBL1201862, “PubChem BioAssay data set” (2004):
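Exposure lasted 48 hours, with cells grown in 96-well plates and compounds tested at five concentrations. At the GI50, growth is halved.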 Activity calls are given as the source filed them. No stated cut-off is given here; in the data, active = GI50 up to about 1.1 µM and inactive = higher.

Assays:
Assay in all cases: inhibition of tumour cell growth, NCI panel, 48 h
M14 = test system: M14
UACC-257 = test system: UACC-257
SW-620 = test system: SW-620
KM12 = test system: KM12
MOLT-4 = test system: MOLT-4
A498 = test system: A498
OVCAR-4 = test system: OVCAR-4
T47D = test system: T47D
HOP-92 = test system: HOP-92
MDA-MB-231 = test system: MDA-MB-231
BT-549 = test system: BT-549
MCF7 = test system: MCF7
Hs-578T = test system: Hs-578T
RXF 393 = test system: RXF 393
OVCAR-3 = test system: OVCAR-3
COLO 205 = test system: COLO 205
HT-29 = test system: HT-29
SF-268 = test system: SF-268
SK-OV-3 = test system: SK-OV-3

Structure (SMILES)	GI50 (M14)	GI50 (UACC-257)	GI50 (SW-620)	GI50 (KM12)	GI50 (MOLT-4)	GI50 (A498)	GI50 (OVCAR-4)	GI50 (T47D)	GI50 (HOP-92)	GI50 (MDA-MB-231)	GI50 (BT-549)	GI50 (MCF7)	GI50 (Hs-578T)	GI50 (RXF 393)	GI50 (OVCAR-3)	GI50 (COLO 205)	GI50 (HT-29)	GI50 (SF-268)	GI50 (SK-OV-3)
O=C1CCCc2ccc3c(c21)CC1(Cc2cc4c(cc2C1)CCCC4)C3	16.9 µM (inactive)	18.5 µM (inactive)	16 µM (inactive)	22.2 µM (inactive)	14.8 µM (inactive)	37.6 µM (inactive)	22.1 µM (inactive)	5.38 µM (inactive)	12.9 µM (inactive)	15.5 µM (inactive)	25.1 µM (inactive)	17.5 µM (inactive)	30.4 µM (inactive)	15.6 µM (inactive)	20.1 µM (inactive)	14.8 µM (inactive)	18.4 µM (inactive)	29 µM (inactive)	43.9 µM (inactive)
C/C=C/[C@@H]1[C@H]2C(=O)[C@]3(Cl)[C@@H](/C=C/C)[C@@H]3C(=O)[C@@]12Cl	> 100 µM (inactive)	> 100 µM (inactive)	> 100 µM (inactive)	> 100 µM (inactive)	7.16 µM (inactive)	> 100 µM (inactive)	> 100 µM (inactive)	> 100 µM (inactive)	94 µM (inactive)	94.2 µM (inactive)	> 100 µM (inactive)	> 100 µM (inactive)	35.2 µM (inactive)	55.3 µM (inactive)	> 100 µM (inactive)	> 100 µM (inactive)	> 100 µM (inactive)	> 100 µM (inactive)	> 100 µM (inactive)
Nc1nc(S)c2c(N)n[nH]c2c1C(=O)Nc1ccccc1	> 100 µM (inactive)	> 100 µM (inactive)	> 100 µM (inactive)	65.5 µM (inactive)	> 100 µM (inactive)	> 100 µM (inactive)	> 100 µM (inactive)	> 100 µM (inactive)	> 100 µM (inactive)	> 100 µM (inactive)	> 100 µM (inactive)	> 100 µM (inactive)	> 100 µM (inactive)	> 100 µM (inactive)	> 100 µM (inactive)	> 100 µM (inactive)	> 100 µM (inactive)	> 100 µM (inactive)	> 100 µM (inactive)
CCOC(=O)C(Cc1ccc(O)cc1)Nc1nc(=O)c2c(=O)oc(Cl)cc2o1 (stereo not drawn)	4.15 µM (inactive)	8 µM (inactive)	3.18 µM (inactive)	10.2 µM (inactive)	2.81 µM (inactive)	18.2 µM (inactive)	12.6 µM (inactive)	4.61 µM (inactive)	7.31 µM (inactive)	6.1 µM (inactive)	2.47 µM (inactive)	4.16 µM (inactive)	3.07 µM (inactive)	4.38 µM (inactive)	6.78 µM (inactive)	8.49 µM (inactive)	3.52 µM (inactive)	3.82 µM (inactive)	14.4 µM (inactive)
Cc1ccc(/N=C/C=C(\Nc2ccc(C)cc2)c2ccc3ccccc3c2)cc1	1.13 µM (inactive)	0.501 µM (active)	0.445 µM (active)	0.299 µM (active)	0.237 µM (active)	10.8 µM (inactive)	0.65 µM (active)	1.41 µM (inactive)	10.6 µM (inactive)	0.388 µM (active)	2.33 µM (inactive)	0.515 µM (active)	0.753 µM (active)	0.521 µM (active)	0.364 µM (active)	0.571 µM (active)	0.347 µM (active)	2.19 µM (inactive)	0.731 µM (active)
S=C(N/N=C(/c1ccccc1)c1ccccn1)N1CCCCC1	0.001 µM (active)	< 0.0183 µM (active)	< 0.0226 µM (active)	< 0.0292 µM (active)	< 0.0135 µM (active)	0.407 µM (active)	1.5 µM (inactive)	0.0927 µM (active)	0.546 µM (active)	0.0273 µM (active)	1.25 µM (inactive)	0.0425 µM (active)	0.237 µM (active)	1.28 µM (inactive)	0.01 µM (active)	< 0.0214 µM (active)	< 0.016 µM (active)		< 0.0387 µM (active)
NC1=Nc2ccccc2Sc2nnc(-c3ccc(Cl)cc3)n21	> 100 µM (inactive)	> 100 µM (inactive)	57.1 µM (inactive)	98.2 µM (inactive)	13.9 µM (inactive)	20.4 µM (inactive)	> 100 µM (inactive)	> 100 µM (inactive)	68.2 µM (inactive)	21.5 µM (inactive)	> 100 µM (inactive)	> 100 µM (inactive)	35.2 µM (inactive)	22.8 µM (inactive)	> 100 µM (inactive)	76.7 µM (inactive)	> 100 µM (inactive)	19.5 µM (inactive)	> 100 µM (inactive)
O=C(CN1CCCCC1)CC(O)(C(F)(F)F)C(F)(F)F	> 100 µM (inactive)	> 100 µM (inactive)	> 100 µM (inactive)	> 100 µM (inactive)		> 100 µM (inactive)	> 100 µM (inactive)	> 100 µM (inactive)	> 100 µM (inactive)	> 100 µM (inactive)	> 100 µM (inactive)	> 100 µM (inactive)	95.9 µM (inactive)	> 100 µM (inactive)	> 100 µM (inactive)	> 100 µM (inactive)	> 100 µM (inactive)		> 100 µM (inactive)
CC[C@@H]1CC[C@@H]2[C@H](CC[C@]3(C)[C@@H](O[N+](=O)[O-])CC[C@@H]23)[C@H]1C(C)=O	30.8 µM (inactive)	20 µM (inactive)	40.4 µM (inactive)	17.3 µM (inactive)	24.3 µM (inactive)	31 µM (inactive)	39 µM (inactive)	12.9 µM (inactive)	21.6 µM (inactive)	11.8 µM (inactive)	50 µM (inactive)	23.8 µM (inactive)	44.7 µM (inactive)	28.2 µM (inactive)	64.1 µM (inactive)	7.85 µM (inactive)	13.1 µM (inactive)	24.5 µM (inactive)	
NC(Cc1cc(I)c(Oc2ccc(O)c(I)c2)c(I)c1)C(=O)O (stereo not drawn) [RATHYRONINE]	> 100 µM (inactive)	> 100 µM (inactive)	> 100 µM (inactive)	> 100 µM (inactive)		35.7 µM (inactive)	> 100 µM (inactive)	81.7 µM (inactive)	82.4 µM (inactive)	29.3 µM (inactive)	61.1 µM (inactive)	41.6 µM (inactive)	37.9 µM (inactive)	> 100 µM (inactive)	> 100 µM (inactive)	> 100 µM (inactive)	> 100 µM (inactive)	42.6 µM (inactive)	> 100 µM (inactive)
Nc1ccc(Oc2ccc(C34CC5C6CC7(c8ccc(Oc9ccc(N)cc9)cc8)CC5C(C3)C(C7)C6C4)cc2)cc1	> 100 µM (inactive)	> 100 µM (inactive)	> 100 µM (inactive)	> 100 µM (inactive)	> 100 µM (inactive)	> 100 µM (inactive)	> 100 µM (inactive)	> 100 µM (inactive)	> 100 µM (inactive)	> 100 µM (inactive)	> 100 µM (inactive)	> 100 µM (inactive)	> 100 µM (inactive)	> 100 µM (inactive)	> 100 µM (inactive)	> 100 µM (inactive)	> 100 µM (inactive)	> 100 µM (inactive)	
